Results published in paper PMC11033320, “Activation of p53 signaling and regression of breast and prostate carcinoma cells by spirooxindole-benzimidazole small molecules” (Frontiers in Pharmacology, 2024).

Key:
UACC-62 = experiment: NCI anticancer screening, Melanoma UACC-62; type: cell-based; conditions: Homo sapiens; UACC-62, 10 μM; read-out: % Growth Inhibition (GI %)
From the text: (§1) The compound has been processed according to standard method NCI-60 Human Tumor Cell Lines Screen for organic compound at development therapeutic program (DTP). Requests for access to this national resource can be submitted online at: […]

HOP-92 = experiment: NCI anticancer screening, Non-Small Cell Lung Cancer HOP-92; type: cell-based; conditions: Homo sapiens; HOP-92, 10 μM; read-out: % Growth Inhibition (GI %)
From the text: as §1

BT-549 = experiment: NCI anticancer screening, Breast Cancer BT-549; type: cell-based; conditions: Homo sapiens; BT-549, 10 μM; read-out: % Growth Inhibition (GI %)
From the text: as §1

SF-268 = experiment: NCI anticancer screening, CNS Cancer SF-268; type: cell-based; conditions: Homo sapiens; SF-268, 10 μM; read-out: % Growth Inhibition (GI %)
From the text: as §1

TK-10 = experiment: NCI anticancer screening, Renal Cancer TK-10; type: cell-based; conditions: Homo sapiens; TK-10, 10 μM; read-out: % Growth Inhibition (GI %)
From the text: as §1

NCI-H322M = experiment: NCI anticancer screening, Non-Small Cell Lung Cancer NCI-H322M; type: cell-based; conditions: Homo sapiens, read-out: % Growth Inhibition (GI %)
From the text: as §1

SK-MEL-2 = experiment: NCI anticancer screening, Melanoma SK-MEL-2; type: cell-based; conditions: Homo sapiens; SK-MEL-2, 10 μM; read-out: % Growth Inhibition (GI %)
From the text: as §1

HCC-2998 = experiment: NCI anticancer screening, Colon Cancer HCC-2998; type: cell-based; conditions: Homo sapiens; HCC-2998, 10 μM; read-out: % Growth Inhibition (GI %)
From the text: as §1

NCI-H522 = experiment: NCI anticancer screening, Non-Small Cell Lung Cancer NCI-H522; type: cell-based; conditions: Homo sapiens; NCI-H522, 10 μM; read-out: % Growth Inhibition (GI %)
From the text: as §1

CCRF-CEM = experiment: NCI anticancer screening, Leukemia CCRF-CEM; type: cell-based; conditions: Homo sapiens, read-out: % Growth Inhibition (GI %)
From the text: as §1

T-47D = experiment: NCI anticancer screening, Breast Cancer T-47D; type: cell-based; conditions: Homo sapiens, T47D, read-out: % Growth Inhibition (GI %)
From the text: as §1

U251 = experiment: NCI anticancer screening, CNS Cancer U251; type: cell-based; conditions: Homo sapiens, U-251; U251, 10 μM; read-out: % Growth Inhibition (GI %)
From the text: as §1

KM12 = experiment: NCI anticancer screening, Colon Cancer KM12; type: cell-based; conditions: Homo sapiens; KM12, 10 μM; read-out: % Growth Inhibition (GI %)
From the text: as §1

SN12C = experiment: NCI anticancer screening, Renal Cancer SN12C; type: cell-based; conditions: Homo sapiens, read-out: % Growth Inhibition (GI %)
From the text: as §1

HCT-15 = experiment: NCI anticancer screening, Colon Cancer HCT-15; type: cell-based; conditions: Homo sapiens; HCT-15, 10 μM; read-out: % Growth Inhibition (GI %)
From the text: as §1

PC-3 cells = experiment: MTT assay anticancer activity, PC-3; type: cell-based; conditions: Homo sapiens, PC-3, 5 µM, mean ± SEM, read-out: growth inhibition percentage of PC-3
From the text: MTT method was done as described above.

MCF7 = experiment: NCI anticancer screening, Breast Cancer MCF7; type: cell-based; conditions: Homo sapiens; MCF7, 10 μM; read-out: % Growth Inhibition (GI %)
From the text: as §1

SNB-19 = experiment: NCI anticancer screening, CNS Cancer SNB-19; type: cell-based; conditions: Homo sapiens; SNB-19, 10 μM; read-out: % Growth Inhibition (GI %)
From the text: as §1

SW-620 = experiment: NCI anticancer screening, Colon Cancer SW-620; type: cell-based; conditions: Homo sapiens; SW-620, 10 μM; read-out: % Growth Inhibition (GI %)
From the text: as §1

EKVX = experiment: NCI anticancer screening, Non-Small Cell Lung Cancer EKVX; type: cell-based; conditions: Homo sapiens, read-out: % Growth Inhibition (GI %)
From the text: as §1

SK-MEL-28 = experiment: NCI anticancer screening, Melanoma SK-MEL-28; type: cell-based; conditions: Homo sapiens; SK-MEL-28, 10 μM; read-out: % Growth Inhibition (GI %)
From the text: as §1

NCI-H460 = experiment: NCI anticancer screening, Non-Small Cell Lung Cancer NCI-H460; type: cell-based; conditions: Homo sapiens; NCI-H460, 10 μM; read-out: % Growth Inhibition (GI %)
From the text: as §1

M14 = experiment: NCI anticancer screening, Melanoma M14; type: cell-based; conditions: Homo sapiens; M14, 10 μM; read-out: % Growth Inhibition (GI %)
From the text: as §1

SNB-75 = experiment: NCI anticancer screening, CNS Cancer SNB-75; type: cell-based; conditions: Homo sapiens; SNB-75, 10 μM; read-out: % Growth Inhibition (GI %)
From the text: as §1

OVCAR-5 = experiment: NCI anticancer screening, Ovarian Cancer OVCAR-5; type: cell-based; conditions: Homo sapiens; OVCAR-5, 10 μM; read-out: % Growth Inhibition (GI %)
From the text: as §1

HOP-62 = experiment: NCI anticancer screening, Non-Small Cell Lung Cancer HOP-62; type: cell-based; conditions: Homo sapiens; HOP-62, 10 μM; read-out: % Growth Inhibition (GI %)
From the text: as §1

OVCAR-3 = experiment: NCI anticancer screening, Ovarian Cancer OVCAR-3; type: cell-based; conditions: Homo sapiens; OVCAR-3, 10 μM; read-out: % Growth Inhibition (GI %)
From the text: as §1

SR = experiment: NCI anticancer screening, Leukemia SR; type: cell-based; conditions: Homo sapiens, read-out: % Growth Inhibition (GI %)
From the text: as §1

CAKI-1 = experiment: NCI anticancer screening, Renal Cancer CAKI-1; type: cell-based; conditions: Homo sapiens; CAKI-1, 10 μM; read-out: % Growth Inhibition (GI %)
From the text: as §1

MDA-MB-468 = experiment: NCI anticancer screening, Breast Cancer MDA-MB-468; type: cell-based; conditions: Homo sapiens, read-out: % Growth Inhibition (GI %)
From the text: as §1

786-0 = experiment: NCI anticancer screening, Renal Cancer 786-0; type: cell-based; conditions: Homo sapiens; 786-0, 10 μM; read-out: % Growth Inhibition (GI %)
From the text: as §1

A549/ATCC = experiment: NCI anticancer screening, Non-Small Cell Lung Cancer A549/ATCC; type: cell-based; conditions: Homo sapiens, read-out: % Growth Inhibition (GI %)
From the text: as §1

MOLT-4 = experiment: NCI anticancer screening, Leukemia MOLT-4; type: cell-based; conditions: Homo sapiens; MOLT-4, 10 μM; read-out: % Growth Inhibition (GI %)
From the text: as §1

K-562 = experiment: NCI anticancer screening, Leukemia K-562; type: cell-based; conditions: Homo sapiens, K562; K-562, 10 μM; read-out: % Growth Inhibition (GI %)
From the text: as §1

HL-60(TB) = experiment: NCI anticancer screening, Leukemia HL-60(TB); type: cell-based; conditions: Homo sapiens, read-out: % Growth Inhibition (GI %)
From the text: as §1

SF-295 = experiment: NCI anticancer screening, CNS Cancer SF-295; type: cell-based; conditions: Homo sapiens; SF-295, 10 μM; read-out: % Growth Inhibition (GI %)
From the text: as §1

MDA-MB 231 cells = conditions: for inhibition: 5 µM

Compound | inhibition at 10 µM (UACC-62) [%] | inhibition at 10 µM (HOP-92) [%] | inhibition at 10 µM (BT-549) [%] | inhibition at 10 µM (SF-268) [%] | inhibition at 10 µM (TK-10) [%] | inhibition at 10 µM (NCI-H322M) [%] | melting point [°C] | inhibition at 10 µM (SK-MEL-2) [%] | inhibition at 10 µM (HCC-2998) [%] | inhibition at 10 µM (NCI-H522) [%] | inhibition at 10 µM (CCRF-CEM) [%] | inhibition at 10 µM (T-47D) [%] | inhibition at 10 µM (U251) [%] | inhibition at 10 µM (KM12) [%] | inhibition at 10 µM (SN12C) [%] | inhibition at 10 µM (HCT-15) [%] | inhibition at 5 µM (PC-3 cells) [%] | inhibition at 10 µM (MCF7) [%] | inhibition at 10 µM (SNB-19) [%] | inhibition at 10 µM (SW-620) [%] | further results
COc1cc([C@@H]2C3CSCN3[C@]3(C(=O)Nc4ccccc43)[C@H]2C(=O)c2nc3ccccc3[nH]2)cc(OC)c1OC (stereo partly drawn) [Compound 6i, (3S,6′R)-6'-(1H-Benzo [d]imidazole-2-carbonyl)-7'-(3,4,5-trimethoxyphenyl)-3′,6′,7′,7a′-tetrahydro-1′H-spiro [indoline-3.5′-pyrrolo [1,2-c]thiazol]-2-one] | 87.4 | 106 | 93.7 | 99.2 | 104 | 93.1 | 245 to 247 | 115 | 108 | 88.3 | 104 | 102 | 103 | 101 | 99 | 105 | 49.8 ± 3.12 | 99.9 | 100 | 99.5 | inhibition at 10 µM (EKVX): 100%; inhibition at 10 µM (SK-MEL-28): 107%; inhibition at 10 µM (NCI-H460): 105%; inhibition at 10 µM (M14): 107%; inhibition at 10 µM (SNB-75): 94.1%; inhibition at 10 µM (OVCAR-5): 94.3%; inhibition at 10 µM (HOP-62): 104%; inhibition at 10 µM (OVCAR-3): 109%; inhibition at 10 µM (SR): 91.8%; inhibition at 10 µM (CAKI-1): 92.6%; inhibition at 10 µM (MDA-MB-468): 99.6%; inhibition at 10 µM (786-0): 99.4%; inhibition at 10 µM (A549/ATCC): 89.4%; inhibition at 10 µM (MOLT-4): 97.4%; inhibition at 10 µM (K-562): 94.2%; inhibition at 10 µM (HL-60(TB)): 103%; inhibition at 10 µM (SF-295): 95.2%; inhibition (MDA-MB 231 cells): 46 ± 1.41%
O=C(c1nc2ccccc2[nH]1)[C@H]1[C@H](c2ccccc2O)C2CSCN2[C@]12C(=O)Nc1ccccc12 (stereo partly drawn) [Compound 6j, (3S,6′R)-6'-(1H-Benzo [d]imidazole-2-carbonyl)-7'-(2-hydroxyphenyl)-3′,6′,7′,7a′-tetrahydro-1′H-spiro [indoline-3.5′-pyrrolo [1,2-c]thiazol]-2-one] | 77.3 | 97.3 | 93.6 | 91.7 | 115 | 99.8 | 186 to 188 | 104 | 103 | 87.2 | 101 | 80.9 | 95.8 | 82.5 | 94.3 | 101 | 40.3 ± 3.44 | 92.4 | 93.7 | 95.4 | inhibition at 10 µM (EKVX): 91.6%; inhibition at 10 µM (SK-MEL-28): 99%; inhibition at 10 µM (NCI-H460): 97.4%; inhibition at 10 µM (M14): 95.1%; inhibition at 10 µM (SNB-75): 73.1%; inhibition at 10 µM (OVCAR-5): 102%; inhibition at 10 µM (HOP-62): 85.2%; inhibition at 10 µM (OVCAR-3): 96.3%; inhibition at 10 µM (SR): 94%; inhibition at 10 µM (CAKI-1): 84%; inhibition at 10 µM (MDA-MB-468): 102%; inhibition at 10 µM (786-0): 106%; inhibition at 10 µM (A549/ATCC): 98.7%; inhibition at 10 µM (MOLT-4): 89.5%; inhibition at 10 µM (K-562): 96.4%; inhibition at 10 µM (HL-60(TB)): 103%; inhibition at 10 µM (SF-295): 96.3%; IC50 (MDA-MB 231 cells): 4.665 ± 0.009 µM; inhibition (MDA-MB 231 cells): 40.8 ± 1.63%
